Measurements reported in the CheMixHub viscosity set.

Assay: xn = mol fraction of the nth substance listed

CC(CC(C)(C)C)CP(=O)(O)CC(C)CC(C)(C)C (configuration not stated) + Cc1ccccc1
298.15 K, 101 kPa
Settings	viscosity [mPa·s]
x1 = 0.0069	0.589
x1 = 0.0129	0.633
x1 = 0.0143	0.65
x2 = 0.1117	88.23
x2 = 0.2037	66.68
x2 = 0.3198	43.9
x2 = 0.4972	20.43
x2 = 0.6533	9.197
x2 = 0.7579	4.844
x2 = 0.7674	4.562
x2 = 0.8571	2.218
x2 = 0.8649	2.075
x2 = 0.9241	1.252
x2 = 0.9269	1.219
x2 = 0.9692	0.778

CCOCCO + Cc1ccccc1
viscosity [mPa·s], 101 kPa
Settings	298.15 K	308.15 K
x1 = 0.056	0.576	0.517
x1 = 0.1494	0.627	0.554
x1 = 0.2493	0.69	0.601
x1 = 0.3539	0.771	0.66
x1 = 0.449	0.859	0.723
x1 = 0.5019	0.915	0.763
x1 = 0.5488	0.969	0.802
x1 = 0.6514	1.107	0.899
x1 = 0.7465	1.261	1.007
x1 = 0.8514	1.468	1.149
x1 = 0.9527	1.716	1.317

CNC(C)=O + Cc1ccccc1
308.15 K, 101.33 kPa
Settings	viscosity [mPa·s]
x1 = 0.0366	0.4848
x1 = 0.1983	0.7283
x1 = 0.3436	1.012
x1 = 0.4518	1.26
x1 = 0.5799	1.582
x1 = 0.6965	1.936
x1 = 0.7868	2.28
x1 = 0.8882	2.718
x2 = 0.0175	3.188

CCOCCO + Cc1ccccc1C
viscosity [mPa·s], 101 kPa
Settings	298.15 K	308.15 K
x1 = 0.0533	0.777	0.674
x1 = 0.1508	0.817	0.708
x1 = 0.2502	0.867	0.75
x1 = 0.3516	0.931	0.8
x1 = 0.4528	1.009	0.858
x1 = 0.5042	1.056	0.892
x1 = 0.553	1.104	0.926
x1 = 0.6472	1.211	1.001
x1 = 0.7494	1.353	1.096
x1 = 0.8486	1.52	1.204
x1 = 0.954	1.739	1.34

CC(CC(C)(C)C)CP(=O)(O)CC(C)CC(C)(C)C (configuration not stated) + ClC(Cl)(Cl)Cl
298.15 K, 101 kPa
Settings	viscosity [mPa·s]
x1 = 0.0063	0.961
x1 = 0.0131	1.04
x1 = 0.0159	1.076
x2 = 0.1192	98.3
x2 = 0.201	83.19
x2 = 0.3155	66.36
x2 = 0.5037	36.06
x2 = 0.6763	19.27
x2 = 0.7689	12.88
x2 = 0.7808	11.73
x2 = 0.8099	9.498
x2 = 0.86	5.932
x2 = 0.8741	4.951
x2 = 0.9286	2.263
x2 = 0.9325	2.124
x2 = 0.9717	1.255

CCCCCCCCBr + ClC(Cl)(Cl)Cl
101 kPa
Settings	viscosity [mPa·s]
293.15 K, x1 = 0.0483	0.9339
293.15 K, x1 = 0.0969	0.9701
293.15 K, x1 = 0.1945	1.037
293.15 K, x1 = 0.3916	1.173
293.15 K, x1 = 0.5916	1.295
293.15 K, x1 = 0.7943	1.404
303.55 K, x1 = 0.0608	0.87
303.55 K, x1 = 0.0978	0.893
303.55 K, x1 = 0.1964	0.955
303.55 K, x1 = 0.3775	1.08
303.55 K, x1 = 0.5801	1.18
303.55 K, x1 = 0.8407	1.307
313.65 K, x1 = 0.0482	0.7513
313.65 K, x1 = 0.0973	0.7763
313.65 K, x1 = 0.1952	0.8276
313.65 K, x1 = 0.3945	0.9359
313.65 K, x1 = 0.5771	1.022
313.65 K, x1 = 0.7616	1.097
